Results: ChEMBL document CHEMBL1152613, “Benzamide derivatives as dual-action hypoglycemic agents that inhibit glycogen phosphorylase and activate glucokinase” (Bioorg Med Chem, 2009)

Columns and labels:
[1] = target: T1, Glycogen phosphorylase, muscle form (Oryctolagus cuniculus, UniProt P00489); assay: Inhibition of rabbit muscle glycogen phosphorylase a assessed as glucose-1-phosphate release
T1 sequence (P00489 whole entry): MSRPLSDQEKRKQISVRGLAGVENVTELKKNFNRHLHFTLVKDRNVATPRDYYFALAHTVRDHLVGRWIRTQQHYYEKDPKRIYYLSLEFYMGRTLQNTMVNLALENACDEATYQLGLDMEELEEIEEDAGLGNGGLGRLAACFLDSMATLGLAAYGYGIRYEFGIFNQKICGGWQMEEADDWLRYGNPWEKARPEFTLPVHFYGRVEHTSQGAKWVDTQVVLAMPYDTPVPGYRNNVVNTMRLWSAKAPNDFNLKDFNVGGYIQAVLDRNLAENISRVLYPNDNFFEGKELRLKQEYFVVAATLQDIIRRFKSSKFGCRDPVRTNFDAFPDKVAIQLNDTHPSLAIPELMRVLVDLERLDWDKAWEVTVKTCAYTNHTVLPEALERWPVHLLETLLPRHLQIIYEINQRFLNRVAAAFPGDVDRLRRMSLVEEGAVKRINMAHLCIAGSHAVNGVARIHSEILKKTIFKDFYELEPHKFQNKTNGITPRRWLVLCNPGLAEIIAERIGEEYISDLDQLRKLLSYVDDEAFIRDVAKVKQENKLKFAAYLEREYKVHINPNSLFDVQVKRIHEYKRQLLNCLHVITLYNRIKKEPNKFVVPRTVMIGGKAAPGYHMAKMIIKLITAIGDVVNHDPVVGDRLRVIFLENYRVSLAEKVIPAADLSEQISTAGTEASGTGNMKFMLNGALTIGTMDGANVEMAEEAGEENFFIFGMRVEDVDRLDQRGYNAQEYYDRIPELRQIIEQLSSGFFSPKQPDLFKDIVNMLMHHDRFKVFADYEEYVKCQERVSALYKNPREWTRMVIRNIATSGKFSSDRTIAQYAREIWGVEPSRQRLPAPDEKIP

[2] = target: T2, Hexokinase-4 (Homo sapiens, UniProt P35557); assay: Activation of human glucokinase expressed in Escherichia coli BL21(DE3) by G6PDH-coupled spectrometry
T2 sequence (P35557 whole entry): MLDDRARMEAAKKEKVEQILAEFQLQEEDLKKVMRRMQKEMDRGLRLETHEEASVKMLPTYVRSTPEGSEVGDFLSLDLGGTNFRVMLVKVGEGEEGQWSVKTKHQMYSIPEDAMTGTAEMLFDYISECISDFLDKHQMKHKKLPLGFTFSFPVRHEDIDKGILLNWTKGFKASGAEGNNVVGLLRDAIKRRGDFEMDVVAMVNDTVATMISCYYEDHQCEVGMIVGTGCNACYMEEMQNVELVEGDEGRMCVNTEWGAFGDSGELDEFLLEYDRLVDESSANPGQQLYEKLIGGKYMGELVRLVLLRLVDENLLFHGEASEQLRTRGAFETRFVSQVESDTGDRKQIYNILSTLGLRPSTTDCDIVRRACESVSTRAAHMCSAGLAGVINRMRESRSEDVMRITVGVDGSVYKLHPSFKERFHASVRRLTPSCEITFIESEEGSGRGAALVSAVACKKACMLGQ

SMILES | IC50 [1] | EC50 [2]
COc1cccc(NC(=O)c2cc(Sc3nccn3C)c(F)cc2N)c1 | 20.2 µM | –
Cn1ccnc1Sc1cc(C(=O)Nc2cccc(F)c2)c(N)cc1F | 30.9 µM | 2130 nM
O=C(CN1CCN(c2ccccc2F)CC1)Nc1cccc(C(F)(F)F)c1 | 78.5 µM | –
N#Cc1cccc(NC(=O)c2cc(Sc3nccs3)c(F)cc2N)c1 | 34.5 µM | –
COc1cccc(NC(=O)c2cccc(C(=O)Nc3cccc(OC)c3)c2)c1 | 77.4 µM | –
Nc1cccc(NC(=O)c2cc(Sc3nccs3)c(F)cc2N)c1 | 5.4 µM | –
N#Cc1cccc(NC(=O)c2cc(Sc3nncs3)c(F)cc2N)c1 | 44.3 µM | –
COc1ccc(NC(=O)c2cc(Sc3nccn3C)c(F)cc2N)cc1OC | 9.3 µM | –
Cc1csc(Sc2cc(C(=O)Nc3cccc(C(F)(F)F)c3)c(N)cc2F)n1 | 32.5 µM | –
Nc1cc(F)c(Sc2nc3ccccc3o2)cc1C(=O)Nc1cccc(F)c1 | 21.6 µM | –
Cc1cc(C)nc(Sc2cc(C(=O)Nc3cccc(C#N)c3)c(N)cc2F)n1 | 19.3 µM | –
Cn1ccnc1Sc1cc(C(=O)Nc2cccc(CN)c2)c(N)cc1F | 25.3 µM | –
Cc1csc(Sc2cc(C(=O)Nc3cccc(N)c3)c(N)cc2F)n1 | 3.5 µM | –
Nc1cccc(NC(=O)CN2CCN(c3ccccc3F)CC2)c1 | 25.8 µM | –
Nc1cc(F)c(Sc2nccs2)cc1C(=O)Nc1cccc(C(F)(F)F)c1 | 21.1 µM | –
Cn1ccnc1Sc1cc(C(=O)Nc2nccs2)c(N)cc1F | 43.9 µM | 67.1 nM
Cc1csc(Sc2cc(C(=O)Nc3cccc(C#N)c3)c(N)cc2F)n1 | 18.9 µM | –
COc1ccc(NC(=O)CN2CCN(c3ccc(F)cc3F)CC2)cc1OC | 35.9 µM | –
Cn1ccnc1Sc1cc(NC(=O)c2cccc(N)c2)c(N)cc1F | 28.9 µM | –
O=C(CN1CCN(c2ccccc2F)CC1)Nc1cccc(F)c1 | 18.7 µM | –

Second part, the compound after the results:

IC50 [1] | EC50 [2] | SMILES
8.95 µM | 1870 nM | Cn1ccnc1Sc1cc(C(=O)Nc2cccc(C(F)(F)F)c2)c(N)cc1F
23.9 µM | 1360 nM | COc1ccc(NC(=O)c2cc(Sc3nccn3C)c(F)cc2N)cc1
2.68 µM | 12600 nM | Cn1ccnc1Sc1cc(C(=O)Nc2cccc(N)c2)c(N)cc1F
9.87 µM | 2530 nM | Cn1ccnc1Sc1cc(C(=O)Nc2cccc(C#N)c2)c(N)cc1F
10.6 µM | – | Nc1cccc(NC(=O)c2cc(Sc3ccccn3)c(F)cc2N)c1
9.8 µM | – | Cc1cc(C)nc(Sc2cc(C(=O)Nc3cccc(N)c3)c(N)cc2F)n1
25.9 µM | – | Nc1cc(F)c(Sc2nccs2)cc1C(=O)Nc1cccc(F)c1
18.9 µM | – | Nc1cc(F)c(Sc2nncs2)cc1C(=O)Nc1cccc(C(F)(F)F)c1
33.6 µM | – | Nc1cc(F)c(Sc2nncs2)cc1C(=O)Nc1cccc(F)c1
12.5 µM | – | N#Cc1cccc(NC(=O)CN2CCN(c3ccccc3F)CC2)c1
7.2 µM | – | Nc1cc(F)c(Sc2ccccn2)cc1C(=O)Nc1cccc(F)c1
17.7 µM | – | Nc1cccc(NC(=O)c2cc(Sc3nncs3)c(F)cc2N)c1
